# Measured values: the METLIN SMRT retention time set (Domingo-Almenara et al. 2019)
# Experiment: gradient 5% acetonitrile 3 min, to 50% in 2 min, to 85% in 15 min, held 3 min, 100 µL/min
# Conditions: column: Zorbax Extend-C18 2.1 x 50 mm; eluents: water / acetonitrile, 0.1% formic acid
# Method in brief: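 Values are retention times taken from adduct peaks that software picked and an analyst inspected. The pure standards were run as mixtures of ~100 molecules on HPLC linked to a quadrupole time-of-flight mass spectrometer, in positive and negative ionization mode. A Zorbax Extend-C18 column (2.1 × 50 mm, 1.8 μm) was used at 100 μL/min with water and acetonitrile, each including 0.1% formic acid.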
row,RP-LC retention time [s],SMILES
1,618,COc1cc(OC)c(NC(=O)N2CCN(CCn3c(C(C)C)nc4cccnc43)CC2)cc1Cl
2,720,Cc1cc(F)ccc1NC(=O)c1cnn2c1CCCC2
3,853,COc1ccccc1C1(CNC(=O)CSc2ccc(F)cc2)CCOCC1
4,670,CCN(Cc1ccccc1)c1ccc(-c2noc(CN3CCN(C)CC3)n2)cn1
5,788,CCc1nnc(-c2ccc3ccn(CC(=O)Nc4cccc(C(C)=O)c4)c3c2)o1
6,768,Cc1cc(F)ccc1NC(=O)c1csc(-c2ccc(N3CCCC3)nc2)n1
7,853,O=c1ccc(N2CCCN(S(=O)(=O)c3cc(F)ccc3F)CC2)nn1-c1ccccc1
8,1000,O=c1ccn(-c2cccc(F)c2)nc1-c1nc(-c2ccc(Br)cc2)no1
9,966,CCCCCCCCc1ccc(CCC(N)(CO)CO)cc1
10,520,Cn1cc(C(=O)NCCn2ncccc2=O)nn1
11,625,O=C1NCCCCCCN(C(=O)c2cn[nH]c2)[C@H]2CCC[C@@H]12
12,1160,Cc1cc(F)ccc1NS(=O)(=O)c1cc(-c2cc(C(F)(F)F)on2)sc1C
13,766,O=C(CSc1ccc(-c2cccc([N+](=O)[O-])c2)nn1)NCc1cccs1
14,924,CCC1(O)CCC12CCN(C(=O)CCC1CCCC1)CC2 (configuration not stated)
15,709,COc1cc(NC(=O)CN2CCN(Cc3ccc(C)cc3)C(=O)C2=O)cc(OC)c1OC
16,758,CCCCNC(=O)C1CCc2nc(N3CCC(C)CC3)ncc2C1 (configuration not stated)
17,929,O=C(C1CCC1)N1CCc2sc(S(=O)(=O)Nc3ccc(Cl)cc3)cc2C1
18,715,O=C(NCc1cc(F)ccc1F)C1CCc2nc(N3CCOCC3)ncc2C1 (configuration not stated)
19,739,O=C(NC1CCN(c2cc(-c3ccccc3)[nH]n2)C1)c1ccc(F)c(F)c1 (configuration not stated)
20,800,CCOc1ccc(NC(=O)c2oc3cc(Br)ccc3c2C)c2cccnc12
21,819,O=C(c1cccs1)N1CCC(Cn2c(C(F)(F)F)nc3ccccc32)CC1
22,902,Cc1ccc(S(=O)(=O)N2CCC(C(=O)NC(C)C(=O)N3CCCc4ccccc43)CC2)cc1 (configuration not stated)

row,RP-LC retention time [s],SMILES
1,850,CCOC(=O)c1[nH]c(C)c(CCC(=O)N2CCC(C(=O)NCc3ccc(OC(C)C)cc3)CC2)c1C
2,744,COc1ccc2c(C)c(CCC(=O)N[C@H](C(=O)O)c3ccccc3)c(=O)oc2c1
3,1030,Cc1noc(C2CN(C(=O)Nc3cccc(F)c3C)CC23CCOCC3)n1 (configuration not stated)
4,873,CCCCNc1nc(-c2ccc(Cl)cc2)nc2ccccc12
5,793,COc1cccc(S(=O)(=O)N2CCc3c(c(CN(C(C)=O)c4ccccc4)nn3C)C2)c1
6,776,O=C(CCCc1ccccc1)N1CCC(c2noc(-c3cnccn3)n2)C1 (configuration not stated)
7,1220,CCn1cc(-c2nc(C(=O)Nc3cc(F)ccc3F)cs2)c2cccnc21
8,576,O=C(NC1CC1)c1ccc(N2CCC(NCc3cc(Br)ccc3O)C2)nc1 (configuration not stated)
9,907,CN(C)C(=O)c1ccc(N2CCc3ccccc32)s1
10,563,COCC1(O)CCOC2(CCN(Cc3ccc(F)cc3Cl)CC2)C1 (configuration not stated)
11,586,Fc1ccc(CN2CCC[C@H]2c2nc(C3CCOCC3)n[nH]2)c(Cl)c1
12,750,O=c1cc(-c2ccccc2)oc2cc(O)c(O)cc12
13,1210,CCOc1cccc(-c2noc(Cn3c(=O)n(Cc4ccc(F)cc4)c(=O)c4sccc43)n2)c1
14,818,Clc1ccc(-c2nc(N3CCCCC3)c3ccccc3n2)cc1
15,952,O=C(Nc1cnc(N2CCCCCC2)nc1)c1ccc(Br)o1
16,589,Clc1ccc(Cl)c(-c2ccc(CNCCCn3ccnc3)o2)c1
17,846,Cc1nc(N2CCCC(C(=O)Nc3ccc4c(c3)OCCO4)C2)c2c(C)c(C)oc2n1 (configuration not stated)
18,565,O=C(NCC1CCCO1)c1cn2ccccc2n1 (configuration not stated)
19,1060,CCCn1c(=O)c(C)nc2cc(-c3noc(Cc4ccc(F)cc4)n3)ccc21
20,853,CCc1ccc(N2C=NS(=O)(=O)c3cccnc32)cc1
21,795,O=C(CCc1c(-c2ccccc2)nc2ccccn12)Nc1ccc(F)cc1Cl
22,804,CCCC(=O)Nc1cc2c(cc1N1CCC(C(=O)OCC)CC1)n(C)c(=O)c(=O)n2C

row,RP-LC retention time [s],SMILES
1,776,COc1cc(NC(=O)C2c3ccccc3C(=O)N3CCc4ccccc4C23)cc(OC)c1OC (configuration not stated)
2,1170,CC(C)Cn1c(=O)c2ccccc2n(Cc2nc(-c3ccccc3Cl)no2)c1=O
3,988,CCOC(=O)C1=C(C)NC2=C(C(=O)c3ccccc32)C1c1cccc(OC)c1 (configuration not stated)
4,863,CN(CCc1noc(COc2ccccc2)n1)C(=O)Cc1ccccc1
5,570,O=C(c1ccco1)N1CCCC(Nc2ncnc3c2CCC3)C1 (configuration not stated)
6,660,CN1CCN(c2ncc3c(n2)CC(c2cc(F)cc(F)c2)CC3=O)CC1 (configuration not stated)
7,1030,Cn1nccc1-c1cccc(-c2noc(-c3cccc(C#N)c3)n2)c1
8,938,CCOC(=O)c1c(C)n(-c2ccc(N(C)C)cc2)c2ccc(OCC(N)=O)cc12
9,650,CCC(=O)N1CCc2cc(C(=O)NC3CC3)ccc21
10,754,Cc1ccc(C)c(NC(=O)COc2nc(C)nc3ccccc23)c1
11,559,c1cnc(-c2n[nH]c(C3CCN(Cc4ccsc4)CC3)n2)cn1
12,870,Cc1ccc2nc(-c3ccc(NS(=O)(=O)c4cn(C)c(=O)n(C)c4=O)cc3)sc2c1
13,616,O=C(O)c1nnn(-c2cccc(F)c2)c1-c1ccncc1
14,1020,Cc1ccc(-c2ccc(=O)n(CCc3nc(-c4ccc5c(c4)OCO5)no3)n2)cc1C
15,599,Cc1noc(C)c1CN1CCN(C(=O)NCc2cccc(F)c2)CC1
16,1100,Cc1ccc(NC(=O)Nc2nccn(-c3ccc(Br)cc3)c2=O)cc1C
17,798,Cc1cc(-n2c(C)nc3ccccc3c2=O)ccc1NC(=O)Cc1ccccc1F
18,810,O=C(NCc1ccc(F)cc1)c1ccc(-n2nc(N3CCCC3)ccc2=O)cc1
19,674,COc1cc2c(cc1OC)C(C(=O)N(C)c1ccc(Cl)cc1)C(c1cccnc1)N(C)C2=O (configuration not stated)
20,946,CCCOCCOC(=O)C1=C(C)NC2=C(C(=O)C(C(=O)OC)C(C)C2)C1c1ccccc1F (configuration not stated)
21,696,C[C@H](Cc1ccccc1)Nc1ncnc2c1ncn2[C@@H]1O[C@H](CO)[C@H](O)C1O (some centres not stated)

row,SMILES,RP-LC retention time [s]
1,Cc1ccccc1-n1c(/C=C\c2ccccn2)nc2ccccc2c1=O,948
2,Cc1ccc2cc(CCC(=O)N3CCC4(CC3)OCCO4)c(=O)[nH]c2c1,688
